Reference: patent US20040028753A1, “Inhalation of nitric oxide” (priority 2000, published 2004)

Assays:
[1] = test system: pigs with endotoxin-induced acute lung damage
Protocol: The Animal Research Ethics Committee of Uppsala University approved the study. Twentysix pigs of Swedish country breed, weighing 24-29 Kg, were used in the study. Before the transport from the farm, the pigs were sedated with a neuroleptic, azaperonum ([…], Janssen, Belgium), 40 mg intramuscularly (im). Anaesthesia was induced with atropine im (0.04 mg/Kg), tiletamin/zolazepam (ZOLETIL, Virbac Laboratories) (6 mg/Kg) and xylzry (ROMPUN, Bayer AG, Germany) (2.2 mg/Kg). After induction, a cannula was inserted in an ear vein and an opioid ([…], Antigen Pharmaceuticals Ltd, Roscrea, Ireland) (5 ug/Kg) was injected. Muscle relaxation was provided by pancuronium (PAVULON, Organon Technika AB, Göteborg, Sweden) ([…]). Anaesthesia was maintained with a continuous infusion of a hypnotic (chlomethiazole, HEMINEVRIN, Astra, Södertälje, Sweden) (400 mg/hour), pancuronium (2 mg/hour) and fentanyl (150 ug/hour) Repeated doses of fentanyl 0.2-0.5 mg i.v. were given as necessary. Depth of anaesthesia was considered to be adequate when skin incisions did riot cause any changes in heart rate or blood pressure. Pre-warmed (38° C.) isotonic saline 500 ml/hour was given for hydration. The animals were placed in the supine position (dorsal recumbency) for the remainder of the study.
A tracheotomy was performed after induction of anaesthesia and a cuffed tracheal tube (inner diameter 6 mm) was inserted. A volume-controlled ventilator (Siemens 900c) provided mechanical ventilation. Transducers built into the ventilator recorded airway pressure and minute ventilation. Respiratory frequency was maintained at 20 breaths per minute with tidal volume adjusted to maintain an end-tidal CO2 (PetCO2) between 36 and 41 mm Hg (4.8-5.4 kPa). The inspiratory time was 25%; an end-inspiratory pause 5% of the respiratory cycle was applied, as well as an end-expiratory pressure (PEEP) of 5-cm H2O. Inspired fraction of oxygen (FIO2) was 0.5.
A triple lumen balloon-tipped catheter (Swan Ganz no. 7F) was introduced via the right external jugular vein to the pulmonary artery for blood sampling and pressure recordings. […] The right carotid artery was cannulated for blood sampling and recording of arterial blood pressure.
The arterial, central venous and pulmonary artery catheters were connected to appropriate pressure transducers (Sorenson Transpac.Transducers, Abbott Critical Care Systems, Ill, USA) and pressures were recorded on a Marquette 7010 monitor (Marquette Electronics Inc., WI USA). Mean arterial pressure (MAP), mean pulmonary artery pressure (MPAP), heart rate (HR), central venous pressure (CVP), pulmonary capillary wedge pressure (PCWP) and cardiac output (Qt) were recorded. Airway pressures were registered from the ventilator. Vascular pressures were averaged over the whole respiratory cycle and the mid-thorax was used as the zero reference level.
Qt was measured.by means of thermodilution: 10 ml of ice cold isotonic saline were injected as a bolus and the Qt was computed (cardiac output computer Marquette 7010, Marquette Electronics Inc., WI, USA). At least three injections were given for each measurement and the mean was calculated. The injections were evenly distributed over the respiratory cycle. The expired minute volume was recorded at each measurement. Mixed venous and arterial blood samples were collected for blood gas analysis (ABL 3, Radiometer, Copenhagen, Denmark), oxygen saturation and hemoglobin concentration (OSM 3, Radiometer, Copenhagen, Denmark). Five-ml arterial blood were collected at the same time, the plasma was separated for biochemical analysis (see below).
Acute lung damage was induced by intravenous infusion of endotoxin 25 ug/kg/hour for 3 hours, and then maintained at 10 ug/kg/hour during the remaining experimental period.
Thirty minutes after surgery, baseline measurements of hemodynamics were made, blood samples were taken and blood was collected for subsequent biochemical analysis.

[2] = test system: COX-1; experiment: COX-1 expression in lung tissue by Western blotting; assay type: in vivo, pig; conditions: 3 and 5 hour INO trial, no-block group
Protocol: (§1) The lung tissue blocks were rinsed by PBS at 4° C. The total protein of lung tissue was extracted by homogenization (Ultra-Turrax, Jenke and Kunkel, IKA Labortechnik, Staufen, Germany) in 5 volumes of ice-cold 0.05M Tris buffer (pH 7.4) containing 0.5 mM phenylmethyl-sulfonylfluoride to inhibit proteolysis. The supernatant was collected and stored at −80° C. until the analysis. The concentration of whole protein in the supernatant was determined by the method of Lowry. Then the protein was fractionated by sodium dodecyl sulfate-polyacrylamide gel electrophoresis, and electrophoretically transferred to a nitrocellulose membrane. The blot was blocked with 5% BSA in TBS overnight at 4° C. and then incubated with anti-COX-1 (1:2500, Cayman Chemical, MI, USA, Ca 160108), COX-2 (1:1500, Cayman Chemical, MI, USA, Ca 160108) in TBS containing 1% BSA over night at 4° C. […] The blot was washed 5 times in TBS, and the antigen-antibody complex was detected on photographic film, using enhanced chemiluminescence reagent (Amersham, Arlington Heights, Ill., USA). All the experiments were carried out three times, and the bands from each experiment were analyzed using the program of National Institutes of Health (NIH) Image 1.6 C for statistical analysis.

[3] = test system: COX-2; experiment: COX-2 expression in lung tissue by Western blotting; assay type: in vivo, pig; conditions: no-block group
Protocol: as §1

[4] = test system: TXB2; experiment: Plasma TXB2 concentration by enzyme immunoassay; assay type: in vivo, pig
Protocol: The injections were evenly distributed over the respiratory cycle. The expired minute volume was recorded at each measurement.
Blood was collected in pre-chilled tubes containing EDTA (10 mM, final concentration), centrifuged (10 min 40C). Measurements of TXB2 concentration were performed using a commercially available enzyme immunoassay (Thromboxane B2 EIA kit Cayman Chemical, MI, USA, Ca 519031). Serum was collected from each test tube and stored at −70° C. until TXB2 measurements were performed. To ensure that all samples were free of organic solvents, the serum was purified before its addition to the assay well. Purification of TXB2 was performed as the Cayman Chemical Introduction, by first adding 10,000 cpm of tritium-labeled TXB2 (3H-TXB2) to each sample, and then 2 ml ethanol, followed by votex 4° C. for 5 minutes, and centrifugation at 1500 g for 10 minutes to remove precipitated proteins. The supernatant was collected and mixed with ultra-pure water. The sample was passed through a C-18 reverse phase cartridge. Ten percent of the eluate was removed for scintillation counting.
Enzyme immunoassays were performed in duplicate by mixing 50 μl purified sample with 50 μl tracer and 50 μl antiserum on micro-plates. After 18 hours incubation, 200 μl Ellmans-Reagents was added to start the enzymatic reaction, and the absorption of individual vials was measured 30 minutes later at 405 nm using a photometry micro-plate reader (Thermo Max, Molecular Devices). Concentrations of TXB2 in the samples were estimated from standard curves obtained by nonlinear regression to absorption of eight known TXB2 concentrations ranging from 7.5 to 1000 pg/ml. The intra-assay and inter-assay coefficients of variation were <10%. For further details, see the TXB2 Enzyme immunoassay Kit 519031 Cayman Chemical manual.

[5] = inhalation of 30 ppm NO after 3 hours of endotoxin infusion (first trial)
[6] = second trial, after 4 hours of endotoxin infusion, 30 ppm NO
[7] = second trial, five minutes after discontinuation of NO inhalation

SMILES | effect of pretreatment on MPAP ([1]; Diclofenac in saline 300 mg/Kg iv bolus 30 minutes before NO inhalation, endotoxin infusion) | time to MPAP increase after discontinuation of NO inhalation ([1]; first trial) [min] | PaO2 rebound on discontinuation of NO inhalation ([1]; first trial (3 hours of endotoxin infusion)) | decrease in MPAP [1, 5] [%] | increase in PaO2 [1, 5] [%] | increase in respiratory resistance during the endotoxin infusion ([1]; pig, in vivo) | MPAP response to NO inhalation in second trial compared with first trial one hour earlier [1, 6] | PaO2 response to NO inhalation in second trial compared with first trial one hour earlier [1, 6] | MPAP increase above the pre-NO level after discontinuation [1, 7] [%] | PaO2 after discontinuation relative to pre-NO level [1, 7] | effect of inhalation or discontinuation on COX-1 expression [2] | effect of thirty minutes of INO on COX-2 expression ([3]; 3 and 5 hour inhalation test) | COX-2 expression after the INO periods [3] | plasma TXB2 level during NO inhalation ([4]; first INO trial) | plasma TXB2 after INO withdrawal ([4]; first INO trial, five minutes after withdrawal, p<0.05 in no-block group) | plasma TXB2 after second INO withdrawal ([4]; second INO trial)
O=C(O)Cc1ccccc1Nc1c(Cl)cccc1Cl [Diclofenac] | lowered MPAP | – | – | – | – | – | – | – | – | – | – | – | – | – | – | –
[N]=O [NO, nitric oxide] | – | ≤ 5 | did not show a clear rebound phenomenon | 28 | 54 | did not prevent or attenuate the rise | weaker | weaker, and no longer significant | 26 | fallen to below the pre-NO level | did not affect | had no effect | remained increased | did not change | increased | further increase
